In patent US6384236B1, “N-(aroyl)glycine hydroxamic acid derivatives and related compounds” (Pfizer Inc, priority 1995, dated 2002) one finds melting point data, which are given here for one molecule.

For orientation: melting point means the temperature, or range, at which the solid turns liquid.

As for `COc1ccc(C(=O)NCC(=O)O)cc1OC1CCCC1` [Example 17], the melting point was in the range of 156 to 168 °C.
